Data taken from patent publication US20250302788A1, “COMPOSITION COMPRISING CREATINE FOR USE IN THE TREATMENT OF POST VIRAL FATIGUE SYNDROME” (Alzchem Trostberg GmbH, priority 2022, published 2025).
Like-named read-outs stand apart in the source and are kept apart here.

What was measured:
[1] = normal healthy population; cited from earlier work
PCFS patients [2] = experiment: MFI-20 fatigue test, Example 3; type: in vivo, human
[3] = system: patients suffering under Post-COVID; experiment: Reported side effects, Example 1; type: in vivo, human; conditions: 4 g creatine monohydrate/day, up to 6 months
Procedure: The number of participants who were randomly assigned, received intended treatment, and were analyzed for the primary outcome at this time was twelve in total, six in experimental group and six in control group.

[4] = human, in vivo
[5] = system: patients suffering under Post-COVID; experiment: Incremental treadmill test until exhaustion, Example 1; type: in vivo, human; conditions: for Time to exhaustion: 4 g/day
Procedure: In addition the time to exhaustion of the patients was evaluated by an incremental test until exhaustion on a motorized treadmill. Speed and gradient of the treadmill are increased every third minute, starting at 2.7 km/h (1.7 miles per hour) at a 10% gradient and rising at stage 7 to 9.7 km/h (6 miles per hour) at 22% gradient (Will P. M. and Walter J. D., Am Heart. J., 1999 December, 138, 1033).

PCFS patients [6] = experiment: Incremental treadmill test until exhaustion, Example 3; type: in vivo, human
Procedure: In addition the time to exhaustion of the patients was evaluated by an incremental test until exhaustion on a motorized treadmill.

[7] = both, human, in vivo
PCFS patients [8] = type: in vivo, human
PCFS patients [9] = conditions: in vivo
[10] = system: patients suffering under Post-COVID; experiment: MFI-20 multidimensional fatigue inventory test, Example 1; type: in vivo, human; conditions: 4 g/day
Procedure: (§1) The patient-reported outcomes for COVID-19-related signs and symptoms (e.g. headache, concentrating difficulties, anosmia, ageusia) were evaluated with VAS scale. Fatigue, comprising the conditions of the group general fatigue, physical fatigue, metal fatigue, reduced activity, and reduced motivation, was evaluated with a multidimensional fatigue inventory test (MFI-20 test, Smets E. M. et al., J. Psychosom. Res. 1995, 39 (3), 315).

[11] = system: patients suffering under Post-COVID; experiment: VAS scale of COVID-19-related signs and symptoms, Example 1; type: in vivo, human; conditions: 4 g/day
Procedure: as §1

[12] = 8 weeks vs baseline, listed as EXP 2, monohydrate
[13] = 8 weeks vs baseline, monohydrate

SMILES: CN(CC(=O)O)C(=N)N.O [Creatine, creatine monohydrate]
- Increase of creatine in the brain after creatine supplementation [1]: ≤ 5%
- General fatigue (MFI-20 score) (PCFS patients [2]; 8 weeks): 12.0
- Mental fatigue (MFI-20 score) (PCFS patients [2]; 8 weeks): 12.2
- Physical fatigue (MFI-20 score) (PCFS patients [2]; 8 weeks): 11.4
- Reduced activity (MFI-20 score) (PCFS patients [2]; 8 weeks): 12.0
- Reduced motivation (MFI-20 score) (PCFS patients [2]; 8 weeks): 10.3
- Cohen's effect (d), General Fatigue (PCFS patients [2]; 8 weeks vs baseline): 0.44
- Cohen's effect (d), Mental Fatigue (MF) (PCFS patients [2]; 8 weeks vs baseline): 1.32
- Cohen's effect (d), Physical Fatigue (PF) (PCFS patients [2]; 8 weeks vs baseline): 0.83
- Cohen's effect (d), Reduced Motivation (RM) (PCFS patients [2]; 8 weeks vs baseline): 1.07
- Cohen's effect (d), Reduced activity (RA) (PCFS patients [2]; 8 weeks vs baseline): 1.52
- General fatigue (MFI-20 score) (PCFS patients [2]; Baseline): 12.6
- Mental fatigue (MFI-20 score) (PCFS patients [2]; Baseline): 13.4
- Physical fatigue (MFI-20 score) (PCFS patients [2]; Baseline): 12.2
- Reduced activity (MFI-20 score) (PCFS patients [2]; Baseline): 13.6
- Reduced motivation (MFI-20 score) (PCFS patients [2]; Baseline): 11.6
- Side effects [3]: no major side effects
- Total creatine, Vastus medialis muscle ([4]; 0 months): 28.2 ± 3.0 mM
- Cohen's effect size (d), brain creatine level, left parietal white matter ([4]; 3 months): 0.92
- Cohen's effect size (d), brain creatine level, parietal white matter ([4]; 3 months): 1.99
- Cohen's effect size (d), brain creatine level, right frontal white matter ([4]; 3 months): 1.25
- Cohen's effect size (d), brain creatine level, right paracentral grey matter ([4]; 3 months): 0.88
- Cohen's effect size (d), brain creatine level, right parietal messial grey matter ([4]; 3 months): 1.17
- Cohen's effect size (d), brain creatine level, thalamus ([4]; 3 months): 0.82
- Total creatine, Vastus medialis muscle ([4]; 3 months): 30.0 ± 4.2 mM
- Cohen's effect size (d), brain creatine level, left parietal messial grey matter ([4]; 6 months): 0.84
- Cohen's effect size (d), brain creatine level, left parietal white matter ([4]; 6 months): 1.17
- Cohen's effect size (d), brain creatine level, parietal white matter ([4]; 6 months): 1.74
- Cohen's effect size (d), brain creatine level, right frontal white matter ([4]; 6 months): 1.32
- Cohen's effect size (d), brain creatine level, right parietal messial grey matter ([4]; 6 months): 1.06
- Total creatine, Vastus medialis muscle ([4]; 6 months): 30.6 ± 3.4 mM
- Time to exhaustion ([5]; 3-months): 922 s
- Time to exhaustion ([5]; 6-months): 959 s
- Time to exhaustion ([5]; Baseline): 894 s
- Stage achieved in the treadmill test ([5]; placebo group remains at stage 5): stage 6
- Increase of time to exhaustion ([5]; vs baseline, compared to 2.1% after placebo intake): 7.3%
- Time to exhaustion (PCFS patients [6]; 8 weeks): 844 s
- Time to exhaustion (PCFS patients [6]; Baseline): 824 s
- Change of time to exhaustion (PCFS patients [6]; post-administration (8 weeks) vs baseline): 20 s
- Total creatine, Left frontal grey matter [7]: 6.6 ± 0.6 mM
- Total creatine, Left frontal white matter [7]: 6.7 ± 0.7 mM
- Total creatine, Left mesial grey matter [7]: 8.1 ± 1.3 mM
- Total creatine, Left paracentral grey matter [7]: 6.8 ± 0.8 mM
- Total creatine, Left parietal white matter [7]: 7.5 ± 1.6 mM
- Total creatine, Left precentral white matter [7]: 6.4 ± 1.0 mM
- Total creatine, Right frontal grey matter [7]: 6.6 ± 1.1 mM
- Total creatine, Right frontal white matter [7]: 6.7 ± 1.0 mM
- Total creatine, Right mesial grey matter [7]: 8.4 ± 1.4 mM
- Total creatine, Right paracentral grey matter [7]: 7.2 ± 0.8 mM
- Total creatine, Right parietal white matter [7]: 7.6 ± 1.9 mM
- Total creatine, Right precentral white matter [7]: 6.8 ± 0.9 mM
- Total creatine, Thalamus [7]: 5.1 ± 1.0 mM
- Total creatine, Vastus medialis muscle [7]: 29.0 ± 5.6 mM
- Cohen's effect size (d) for creatine increase, parietal mesial grey matter ([7]; 8 weeks): 0.65
- Total creatine, Left frontal grey matter ([7]; 8 weeks): 6.5 ± 0.5 mM
- Total creatine, Left frontal white matter ([7]; 8 weeks): 6.8 ± 0.9 mM
- Total creatine, Left mesial grey matter ([7]; 8 weeks): 8.6 ± 1.1 mM
- Total creatine, Left paracentral grey matter ([7]; 8 weeks): 6.9 ± 0.9 mM
- Total creatine, Left parietal white matter ([7]; 8 weeks): 7.8 ± 1.3 mM
- Total creatine, Left precentral white matter ([7]; 8 weeks): 6.7 ± 0.8 mM
- Total creatine, Right frontal grey matter ([7]; 8 weeks): 6.7 ± 1.0 mM
- Total creatine, Right frontal white matter ([7]; 8 weeks): 7.0 ± 1.1 mM
- Total creatine, Right mesial grey matter ([7]; 8 weeks): 9.2 ± 1.0 mM
- Total creatine, Right paracentral grey matter ([7]; 8 weeks): 7.6 ± 1.6 mM
- Total creatine, Right parietal white matter ([7]; 8 weeks): 7.7 ± 1.9 mM
- Total creatine, Right precentral white matter ([7]; 8 weeks): 7.4 ± 1.1 mM
- Total creatine, Thalamus ([7]; 8 weeks): 5.3 ± 0.9 mM
- Total creatine, Vastus medialis muscle ([7]; 8 weeks): 30.4 ± 5.2 mM
- Ageusia (VAS scale) (PCFS patients [8]; 8 weeks): 0.2
- Anosmia (VAS scale) (PCFS patients [8]; 8 weeks): 0.0
- Concentrating difficulties (VAS scale) (PCFS patients [8]; 8 weeks): 2.2
- Headache (VAS scale) (PCFS patients [8]; 8 weeks): 0.8
- Malaise (VAS scale) (PCFS patients [8]; 8 weeks): 1.0
- Cohen's effect (d), Ageusia (AGE) (PCFS patients [8]; 8 weeks vs baseline): 0.34
- Cohen's effect (d), Breathing Difficulties (BRD) (PCFS patients [8]; 8 weeks vs baseline): 0.96
- Cohen's effect (d), Headache (HAD) (PCFS patients [8]; 8 weeks vs baseline): 0.93
- Cohen's effect (d), Difficulties concentrating (DCN) (PCFS patients [8]; [12]): 1.37
- Cohen's effect (d), Malaise (MAL) (PCFS patients [8]; [12]): 1.81
- Cohen's effect (d), Difficulties concentrating (DCN) (PCFS patients [8]; [13]): > 0.80
- Cohen's effect (d), Malaise (MAL) (PCFS patients [8]; [13]): > 0.80
- Ageusia (VAS scale) (PCFS patients [8]; Baseline): 0.0
- Anosmia (VAS scale) (PCFS patients [8]; Baseline): 0.0
- Concentrating difficulties (VAS scale) (PCFS patients [8]; Baseline): 4.2
- Headache (VAS scale) (PCFS patients [8]; Baseline): 3.2
- Malaise (VAS scale) (PCFS patients [8]; Baseline): 4.2
- Side effects / tolerability (PCFS patients [9]): well-tolerated
- General fatigue (MFI-20 score) ([10]; 3 months): 11.3
- Mental fatigue (MFI-20 score) ([10]; 3 months): 11.2
- Physical fatigue (MFI-20 score) ([10]; 3 months): 12.7
- Reduced activity (MFI-20 score) ([10]; 3 months): 12.0
- Reduced motivation (MFI-20 score) ([10]; 3 months): 13.0
- General fatigue (MFI-20 score) ([10]; 6 months): 12.7
- Mental fatigue (MFI-20 score) ([10]; 6 months): 10.5
- Physical fatigue (MFI-20 score) ([10]; 6 months): 13.2
- Reduced activity (MFI-20 score) ([10]; 6 months): 12.5
- Reduced motivation (MFI-20 score) ([10]; 6 months): 12.5
- General fatigue (MFI-20 score) ([10]; Baseline): 12.0
- Mental fatigue (MFI-20 score) ([10]; Baseline): 12.3
- Physical fatigue (MFI-20 score) ([10]; Baseline): 13.5
- Reduced activity (MFI-20 score) ([10]; Baseline): 11.5
- Reduced motivation (MFI-20 score) ([10]; Baseline): 13.0
- Ageusia (VAS scale) ([11]; 3 months): 0.2
- Anosmia (VAS scale) ([11]; 3 months): 1.0
- Concentrating difficulties (VAS scale) ([11]; 3 months): 1.5
- Headache (VAS scale) ([11]; 3 months): 0.8
- Ageusia (VAS scale) ([11]; 6 months): 0.0
- Anosmia (VAS scale) ([11]; 6 months): 0.8
- Concentrating difficulties (VAS scale) ([11]; 6 months): 0.0
- Headache (VAS scale) ([11]; 6 months): 0.5
- Ageusia (VAS scale) ([11]; Baseline): 5.0
- Anosmia (VAS scale) ([11]; Baseline): 5.0
- Concentrating difficulties (VAS scale) ([11]; Baseline): 4.0
- Headache (VAS scale) ([11]; Baseline): 3.8
